Here are results for 2 molecules from BindingDB's records for doi:10.1021/jm00045a022 (National Institute of Diabetes and Digestive and Kidney …, 1994).

The Ki is a dissociation constant, usually derived from enzyme kinetics or from competition with a known ligand. A high value points to weaker binding.

A short description of the assay: Inhibition of [3H](+)-pentazocine binding to sigma receptor of guinea pig brain.

Molecules are shown by their SMILES.

Turning to `COc1cccc([C@]23CCN(C)[C@H](CC(=O)C2)C3)c1`, the affinity, expressed as Ki, was 0.762 µM.

The molecule `C[N+]1(C)CCC2(c3cccc(O)c3)CC(=O)C(=Cc3ccccc3)C1C2` (configuration not stated) [5-(3-Hydroxy-phenyl)-2,2-dimethyl-7-oxo-8-[1-phenyl-meth-(E)-ylidene]-2-azonia-bicyclo[3.3.1]nonane; iodide] had a Ki of 5.4 µM.
